According to patent US8921559B2, “4-substituted-cyclohexylamino-4-piperidinyl-acetamide antagonists of CCR2” (Janssen Pharmaceutica NV, priority 2010, dated 2014):
Structures can show the parent of a compound that is named as a salt.

Biological target: CCR2 (Homo sapiens (Human), UniProt P41597)
Experiment: MCP-1 Receptor Binding Assay in THP-1 Cells
Conditions: 0.5 nM 125I labeled MCP-1, 2 hours at 30° C., average of the two most similar values where more than one IC50, read-out: Inhibition of MCP-1 Binding IC50 CCR2 Binding
Protocol: Compounds of the invention were subjected to various representative biological tests. […] MCP-1 Receptor Binding Assay in THP-1 Cells Human monocytic cell line THP-1 cells were obtained from American Type Culture Collection (Manassas, Va., USA). The THP-1 cells were grown in RPMI-1640 (RPMI: Roswell Park Memorial Institute Medium-cell culture growth media) supplemented with 10% fetal bovine serum in a humidified 5% CO2 atmosphere at 37° C. The cell density was maintained between […].
THP-1 (cells were incubated with 0.5 nM ^125I labeled MCP-1 (Perkin-Elmer Life Sciences, Inc. Boston, Mass.) in the presence of varying concentrations of either unlabeled MCP-1 (R & D Systems, Minneapolis, Minn.) or test compound for 2 hours at 30° C. in a 96 well plate. Cells were then harvested onto a filter plate, dried, and 20 μL of Microscint 20 was added to each well. Plates were counted in a TopCount NXT, Microplate Scintillation & Luminescence Counter (Perkin-Elmer Life Sciences, Inc. Boston, Mass.). Blank values (buffer only) were subtracted from all values and drug treated values were compared to vehicle treated values. 1 μM cold MCP-1 was used for nonspecific binding.

CCR2, sequence (P41597 other isoform, or with tags, fused parts or gaps isoform P41597-2): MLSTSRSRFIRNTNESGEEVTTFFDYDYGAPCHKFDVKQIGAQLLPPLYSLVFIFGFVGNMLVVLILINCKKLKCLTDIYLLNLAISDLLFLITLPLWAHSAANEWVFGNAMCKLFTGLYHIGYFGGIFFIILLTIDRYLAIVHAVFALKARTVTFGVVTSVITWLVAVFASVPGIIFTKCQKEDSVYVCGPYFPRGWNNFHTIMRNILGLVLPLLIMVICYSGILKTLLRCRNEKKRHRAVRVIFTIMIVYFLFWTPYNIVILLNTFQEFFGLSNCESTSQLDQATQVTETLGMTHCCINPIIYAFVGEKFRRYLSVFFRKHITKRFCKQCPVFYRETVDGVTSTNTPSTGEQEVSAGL

IC50 [nM]	Structure (SMILES)
230	O=C(O)C(N[C@H]1CC[C@H](c2c[nH]c3ccccc32)CC1)C1CCN(C(=O)Nc2ccc(Cl)c(Cl)c2)CC1 (stereo partly drawn) [Example 27, 2-[4-(1H-Indol-3-yl)-trans-cyclohexylamino]-2-[N-(3,4-dichlorophenyl)-piperidine-1-carboxamid-4-yl]-acetic acid hydrochloride]
320	O=C(O)C(N[C@H]1CC[C@@H](c2c[nH]c3ccccc32)CC1)C1CCN(C(=O)Nc2ccc(Cl)c(Cl)c2)CC1 (stereo partly drawn) [Example 28, 2-[4-(1H-Indol-3-yl)-cis-cyclohexylamino]-2-[N-(3,4-dichlorophenyl)-piperidine-1-carboxamid-4-yl]-acetic acid hydrochloride]
669	NC(=O)C(NC1CCC(c2c[nH]c3ccccc23)CC1)C1CCN(C(=O)Nc2ccc(F)cc2)CC1 (stereo not shown) [Example 29, 2-[4-(1H-Indol-3-yl)-cyclohexylamino]-2-[N-(4-fluorophenyl)piperidine-1-carboxamid-4-yl]-acetamide]
710	CSc1cccc(NC(=O)N2CCC(C(NC3CCC(c4c[nH]c5ccccc45)CC3)C(N)=O)CC2)c1 (stereo not shown) [Example 31, 2-[4-(1H-Indol-3-yl)-cyclohexylamino]-2-[N-(3-{methysulfanyl}phenyl)-piperidine-1-carboxamid-4-yl]-acetamide]
807	NC(=O)C(NC1CCC(c2c[nH]c3ccccc23)CC1)C1CCN(C(=O)Nc2ccc(F)c(F)c2)CC1 (stereo not shown) [Example 32, 2-[4-(1H-Indol-3-yl)-cyclohexylamino]-2-[N-(3,4-difluorophenyl)piperidine-1-carboxamid-4-yl]-acetamide]
960	NC(=O)C(NC1CCC(c2c[nH]c3ccccc23)CC1)C1CCN(C(=O)/C=C/c2ccc3c(c2)CCCO3)CC1 (stereo not shown) [Example 33, 2-[4-(1H-indol-3-yl)-cyclohexylamino]-2-{1-[(2E)-3-(3,4-dihydro-2H-chromen-6-yl)prop-2-enoyl]piperidin-4-yl}acetamide]
40	NC(=O)C(NC1CCC(c2c[nH]c3ccncc23)CC1)C1CCN(C(=O)Nc2ccc(Cl)c(Cl)c2)CC1 (stereo not shown) [Example 40, 2-[4-(1H-pyrrolo[3,2-c]pyridin-3-yl)cyclohexyl]amino-2-[N-(3,4-dichlorophenyl)piperidine-1-carboxamid-4-yl]-acetamide]
83	NC(=O)C(N[C@H]1CC[C@H](c2c[nH]c3ccncc32)CC1)C1CCN(C(=O)/C=C/c2cc(F)c(F)c(F)c2)CC1 (stereo partly drawn) [Example 41, R,S-2-[trans-4-(1H-pyrrolo[3,2-c]pyridin-3-yl)cyclohexyl]amino-2-[1-(trans-3,4,5-trifluorocinnamoyl)-piperidin-4-yl]-acetamide]
87	NC(=O)C(NC1CCC(c2c[nH]c3cccnc23)CC1)C1CCN(C(=O)Nc2ccc(Cl)c(Cl)c2)CC1 (stereo not drawn) [Example 42, 2-[trans-4-(1H-pyrrolo[3,2-b]pyridin-3-yl)cyclohexyl]amino-2-[N-(3,4-dichlorophenyl)piperidine-1-carboxamid-4-yl]-acetamide]
122	NC(=O)C(N[C@H]1CC[C@H](c2c[nH]c3cccnc32)CC1)C1CCN(C(=O)/C=C/c2ccccc2)CC1 (stereo partly drawn) [Example 43, R,S-2-[trans-4-(1H-pyrrolo[3,2-b]pyridin-3-yl)cyclohexyl]amino-2-[1-(trans-cinnamoyl)-piperidin-4-yl]-acetamide]
132	NC(=O)C(NC1CCC(c2c[nH]c3ncccc23)CC1)C1CCN(C(=O)/C=C/c2cc(F)c(F)c(F)c2)CC1 (stereo not drawn) [Example 44, 2-[4-(1H-pyrrolo[2,3-b]pyridin-3-yl)cyclohexyl]amino-2-[1-(trans-3,4,5-trifluorocinnamoyl)-piperidin-4-yl]-acetamide]
130	NC(=O)C(NC1CCC(c2c[nH]c3cccnc23)CC1)C1CCN(C(=O)/C=C/c2cc(F)cc(F)c2)CC1 (stereo not drawn) [Example 45, R,S-2-[trans-4-(1H-pyrrolo[3,2-b]pyridin-3-yl)cyclohexyl]amino-2-[1-(trans-3,5-difluorocinnamoyl)-piperidin-4-yl]-acetamide]
330	NC(=O)C(NC1CCC(c2c[nH]c3ncccc23)CC1)C1CCN(C(=O)/C=C/c2cc(F)cc(F)c2)CC1 (stereo not drawn) [Example 46, R,S-2-[4-(1H-pyrrolo[2,3-b]pyridin-3-yl)cyclohexyl]amino-2-[1-(trans-3,5-difluorocinnamoyl)-piperidin-4-yl]-acetamide]
590	Cc1cccc(NC(=O)N2CCC(C(NC3CCC(c4c[nH]c5cccnc45)CC3)C(N)=O)CC2)c1 (stereo not shown) [Example 48, 2-[4-(1H-pyrrolo[3,2-b]pyridin-3-yl)cyclohexyl]amino-2-[N-(3-tolyl)piperidine-1-carboxamid-4-yl]-acetamide]
635	COc1ccc(C2CCC(NC(C(N)=O)C3CCN(C(=O)/C=C/c4cc(F)c(F)c(F)c4)CC3)CC2)cn1 (stereo not drawn) [Example 50, 2-[4-(6-methoxypyridin-3-yl)cyclohexyl]amino-2-[1-(trans-3,4,5-trifluorocinnamoyl)-piperidin-4-yl]-acetamide]
665	O=C(NO)C(NC1CCC(c2c[nH]c3ccccc23)CC1)C1CCN(C(=O)/C=C/c2cc(F)c(F)c(F)c2)CC1 (stereo not drawn) [Example 51, N-Hydroxy-2-{[4-(1H-Indol-3-yl)-cyclohexylamino]-2-[1-(trans-3,4,5-trifluorocinnamoyl)-piperidin-4-yl]}-acetamide]
950	NC(=O)C(N[C@H]1CC[C@H](C2CNc3ccccc32)CC1)C1CCN(C(=O)/C=C/c2cc(F)c(F)c(F)c2)CC1 (stereo partly drawn) [Example 52, 2-{[4-(2,3-dihydro-1H-indol-3-yl)-trans-cyclohexylamino]-2-[1-(trans-3,4,5-trifluorocinnamoyl)-piperidin-4-yl]}-acetamide]
984	CNC(=O)C(NC1CCC(c2c[nH]c3ccccc23)CC1)C1CCN(C(=O)/C=C/c2cc(F)c(F)c(F)c2)CC1 (stereo not drawn) [Example 53, N-Methyl-2-{[4-(1H-Indol-3-yl)-cyclohexylamino]-2-[1-(trans-3,4,5-trifluorocinnamoyl)-piperidin-4-yl]}-acetamide]
981	CN(C)C(=O)C(NC1CCC(c2c[nH]c3ccccc23)CC1)C1CCN(C(=O)/C=C/c2cc(F)c(F)c(F)c2)CC1 (stereo not drawn) [Example 54, N,N-Dimethyl-2-{[4-(1H-Indol-3-yl)-cyclohexylamino]-2-[1-(trans-3,4,5-trifluorocinnamoyl)-piperidin-4-yl]}-acetamide]

Structure (SMILES)	IC50 [nM]
NC(=O)C(NC1CCC(c2c[nH]c3ccccc23)CC1)C1CCN(C(=O)Nc2cc(F)cc(F)c2)CC1 (stereo not shown) [Example 30, 2-[4-(1H-Indol-3-yl)-cyclohexylamino]-2-[N-(3,5-difluorophenyl)piperidine-1-carboxamid-4-yl]-acetamide]	708
COC(=O)C(NC1CCC(c2c[nH]c3ccccc23)CC1)C1CCN(C(=O)/C=C/c2cc(F)c(F)c(F)c2)CC1 (stereo not drawn) [Example 49a, Methyl 2-[4-(1H-indol-3-yl)-trans-cyclohexylamino]-2-[1-(trans-3,4,5-trifluorocinnamoyl)piperidin-4-yl]-acetate]	410
COC(=O)C(NC1CCC(c2c[nH]c3ccccc23)CC1)C1CCN(C(=O)/C=C/c2cc(F)c(F)c(F)c2)CC1 (stereo not shown) [Example 49b]	750
